The structures appear in SMILES notation.

The subject of series [1] is target sequence (SEQ ID NO. 1). Kind of series: Fluorescence (quantum yield, excitation and emission maxima) of target sequence/biarsenical molecule complex. Format: physicochemical. Here is the method: Formation of target sequence/biarsenical molecule (III) complex. Biarsenical molecule (III) (3 μl of 1 mM solution in DMSO) was added to 100 μl of 25 μM target sequence (SEQ. ID NO. 1) in 25 mM phosphate, pH 7.4, 100 mM KCl, 1 mM mercaptoethanesulfonate. After 1.5 hours, the reaction mixture (at room temperature) was injected onto a Dionex IonPac NS1 reverse phase HPLC column, gradient 20% to 46% acetonitrile (0.1% TFA) from 3 to 17 minutes. The complex eluted at 14.7 minutes (Free target sequence elutes at 12.6 minutes.) Mass spectrum analysis indicated a molecular weight of 2414.99 Da and the calculated molecular weight for the 1:1 complex was 2415.33 Da.
Quantum yield of target sequence/biarsenical molecule(III) complex. Solutions of fluorescein in 0.1 N NaOH and of target sequence/biarsenical molecule(III) complex in 25 mM phosphate, pH 7.4 and 100 mM KCl were adjusted to equal absorbances (0.0388) at 499 nm. The ratio of the integrated emission (excitation at 499 nm) of target sequence/biarsenical molecule(III) complex relative to fluorescein was multiplied by 0.9, the quantum yield of fluorescein, giving a quantum yield 0.44 for the target sequence/biarsenical molecule (III) complex.
(§1) This complex has a fluorescence quantum yield of 0.44 with excitation maximum at 508 nm and emission maximum at 528 nm (FIG. 4). The complex was of sufficient stability to remain intact in the presence of up to 100 equivalents of 2,3 dimercapto-1-propanol (BAL). Incubations with BAL were done at room temperature for 15 minutes.
Formation of a complex with target sequence and the dichloro-derivative of the biarsenical molecule (III). Dichloro-derivative of the biarsenical molecule (III) (5 μl of 675 μm solution in DMSO was added to 100 μl of 25 μM target sequence (SEQ ID NO. 1) in 25 mM phosphate, pH 7.4, 100 mM KCl 1 mM mercaptoethanesulfonate. After 1.5 hours, the reaction mixture was injected onto a Dionex IonPac SN1 reverse phase HPLC column, gradient 20% to 46% acetonitrile (0.1% TFA) from 3 to 17 minutes. The complex eluted in two overlapping peaks of the same molecular weight at 16.1 and 16.4 minutes. (Free peptide elutes at 12.6 minutes.) Mass spectrum analysis indicated a molecular weight of 2484.80 Da compared to the calculated molecular weight of the 1:1 complex was 2484.22 Da.

The test system of series [2] is target sequence (SEQ ID NO. 1). Briefly: Stability of biarsenical molecule (III)/target sequence complex to 2,3 dimercapto-1-propanol (BAL). It counts as physicochemical. The following applies: room temperature, 15 minutes; for effect of BAL on complex: 100 nM complex. Here is the method: as §1
Series [3] has as its target T1, calmodulin+cys4 (Xenopus laevis, UniProt P0DP33, A11C/A2H/E12C/E7C/E8C).
T1 construct: expressed in transfected cells; host or cells: HeLa cells, pcDNA3 vector
Kind of series: Labeling of calmodulin+cys4 in transfected HeLa cells (fluorescence microscopy). Format: cell-based. The text has this:
Four cysteines were introduced into the N-terminal α-helix of xenopus calmodulin as shown below:
The mutated calmodulin is referred to as calmodulin+cys4. The substitutions were generated by using as a PCR primer of the following oligonucleotide sequence 5′-CGCGGATCCGCCACCATGCATGACCAACTGACATGCTGCCAGATTTGCTGCTTCAAAGAAGCCTTCTCATTATTC-3′ (SEQ ID NO. 3) encoding for the expression of these substitutions. The nucleic acid sequence encoding the cysteine-substituted calmodulin was inserted into pcDNA3 vector (Invitrogen, Carlsbad, Calif.) using the BamHI and EcoRI restriction sites. After amplification in DH5 bacteria, the vector was transfected (at 37° C.) into HeLa cells using the Lipofectin system from GibcoBRL.
Three days after transfection, the cells were treated with 1 μM biarsenical molecule (III) and 10.0 μM EDT for one hour. […] These lightly stained cells may have expressed the calmodulin+cys4 polypeptide, but at lower levels than the bright cells. […] Removal of the 1.4 neutral density filter was required to see details of the staining of the untransfected cells which appeared to be mitochondrial.

Series [4] deals with T2, cyan GFP-target sequence (SEQ ID NO. 4) fusion in HeLa cells (Aequorea victoria, UniProt P42212, F64L/M153T/N146I/N212K/S65T/V163A/Y66W).
T2 construct: expressed in transfected cells; host or cells: HeLa cells, pcDNA3 vector
Briefly: Measurement of FRET in HeLa cells expressing cyan GFP-target sequence fusion. Format: cell-based. The text has this:
Expression of Cyan GFP-target sequence fusion in HeLa cells. Using standard molecular biology techniques, the target sequence (SEQ ID NO. 4) (with the tryptophan in SEQ ID NO. 1 replaced by an alanine) was attached to cyan fluorescent protein (CFP). CFP is the Green Fluorescent Protein (GFP) of Aequorea victoria with the following additional mutations: F64L, S65T, Y66W, N146I, M153T, V163A, N212K. Miyawaki A., et al. Nature 388:882-7 (1997). Fusion of the target sequence to the C-terminus of cyan GFP was accomplished using a PCR primer. The PCR primer had the following oligonucleotide sequence 5′-CGGCAATTCTTAGGCCCTGGCGCAGCACTCCCTGCAGCAGGCCTCCCTGGCGGCGGCCTCGGCCTTGTACAGCTCGTCCATGCCC-3′ (SEQ ID NO. 2) encoding for the expression of the target sequence. It was inserted into the pcDNA3 vector (Invitrogen, Carlsbad, Calif.) using HindIII and EcoRl restriction sites. After amplification in DH5 bacteria, it was transfected (at 37° C.) into HeLa cells using the Lipofectin system from GibcoBRL.
Measurement of FRET in HeLa cells. Three days after transfection, a concentration of 1.0 μM biarsenical molecule(III) and 10.0 μM ethanedithiol was applied to the transfected cells. Fluorescence changes were observed using a 440DF20 filter (Omega Optical, Brattleboro, Vt.) and a 4% transmittance neutral density filter for excitation and 480DF30 and 635DF50 filters for emission.
HeLa cells expressing the fusion protein were contacted with biarsenical molecule (III) on a fluorescence microscope stage. […] Upon addition of 1.0 μM biarsenical molecule (III) mixed with 10 μM EDT to inhibit background staining, the intensity of fluorescence at 480 nm decreased as energy was transferred from the CFP to the biarsenical molecule (III) which had reacted with the target sequence. There was a corresponding increase in fluorescence in the 635 nm channel due to biarsenical molecule (III)/target sequence emission. Upon removal of the biarsenical molecule (III) solution, there was little change.

A short description of series [5]: Fluorescence of the free biarsenical molecule bonded to EDT. Format: physicochemical. The following applies: before reaction with target sequence.
[6] abbreviates: 1.0 μM biarsenical molecule (III) with 10 μM EDT, excitation 440 nm, transfected HeLa cells.

Consider `O=C1OC2(c3ccccc31)c1cc(Cl)c(O)c([As]3SCCS3)c1Oc1c2cc(Cl)c(O)c1[As]1SCCS1` [2′,7′-dichloro-4′,5′-bis(2-arsa-1,3-dithiolan-2-yl)fluorescein], for which, in series [1] (complex with target sequence), the emission maximum stood at 538 nm and the excitation maximum was found to be 518 nm. Besides, the red shift in series [1] (dichloro-derivative compared with biarsenical molecule (III)) is given as 10 nm.
As for `O=C1OC2(c3ccccc31)c1ccc(O)c([As]3SCCS3)c1Oc1c2ccc(O)c1[As]1SCCS1` [biarsenical molecule (III), 4′,5′-bis(2-arsa-1,3-dithiolan-2-yl)fluorescein], the “effect of BAL on complex” value in series [2] (1 μM BAL) is on record as “barely affected”. The “effect of BAL on complex” value in series [2] (10 μM BAL) was “barely affected”. For the same compound, in series [2] (100 μM BAL), the “effect of BAL on complex” value is given as “significant reduction in fluorescence”. Further, the “BAL at which complex remains intact” value in series [2] is on record as “up to 100 equivalents”. The “fluorescence of transfected cells” value in series [3] (1 μM biarsenical molecule (III) and 10.0 μM EDT for one hour, HeLa cells transfected with calmodulin+cys4, 480 nm excitation, 535 nm emission) is “bright fluorescence”. Further, the “fluorescence of untransfected cells” value in series [3] (same concentrations of biarsenical molecule (III) and EDT, untransfected HeLa cells) is given as “only very light fluorescence”. Also, in series [4] (setting [6]), the “fluorescence in the 635 nm channel (complex emission)” value is reported as “increase” and the “intensity of fluorescence at 480 nm (CFP emission)” value is listed as “decreased”. The “removal of biarsenical molecule from target sequence in cells (reversibility)” value in series [4] (cells treated with 1 mM EDT) was “fast but not complete”. Moreover, the “fluorescence of untransfected cells relative to cells expressing the CFP-target sequence fusion” value in series [4] (excitation 480 nm, signal at 535 nm, after subtraction of CFP signal) is listed as “about 10%”. Further, the “fluorescence of free molecule” value in series [5] is recorded as “nonfluorescent”. Moreover, the “fluorescence of free molecule” value in series [5] (listed as biarsenical molecule of formula (III)) was “essentially completely nonfluorescent”. Moreover, in series [1] (complex with target sequence), the emission maximum is 528 nm, the excitation maximum amounted to 508 nm and the “red shift of fluorescent signal relative to fluorescein” value was “about 20 nm”. In series [1] (complex with target sequence, 25 mM phosphate, pH 7.4, 100 mM KCl, excitation at 499 nm, relative to fluorescein), the quantum yield was found to be 0.44.

The record behind these values is patent publication US6686458B2, “Synthetic molecules that specifically react with target sequences” (The Regents of the University of California, priority 1997, dated 2004).
